In series [1] the target is T1, recombinant GABA α3β2γ2 receptors (HEK-293 cell membranes) (Homo sapiens, UniProt P18507+P34903).
T1 construct: expressed in transfected cells; membranes
The series is described as follows: In vitro inhibition of 3H-flumazenil binding. The note with it: 3H-flumazenil 1 nM, 40 min at 2° C., HEK-293 α3β2γ2 membranes. The source says: Specific binding is total binding minus non-specific binding.

Series [2] addresses T2, α3β2γ2 GABAA receptors expressed in Xenopus laevis oocytes (Homo sapiens, UniProt P18507+P34903).
T2 construct: expressed in transfected cells; host or cells: Xenopus laevis oocytes injected with cRNA
The series is described as follows: Oocyte two-electrode voltage clamp electrophysiology, α3β2γ2. Type of series: cell-based. The note with it: GABA at EC10-20; normalized to diazepam. How it is done:
(§1) FIG. 1. […] Efficacy profile on GABAA receptors in oocyte two-electrode voltage clamp recordings. […] Peak currents were read and normalized to a maximal effective concentration of diazepam, where after data points were fitted to the empirical Hill equation by non-linear regression, n=3−14.
(§2) The assay reported here is performed to determine the in vitro functional potency as well as efficacy of PAMs at the major brain GABAA receptors subtypes. To establish this, a full concentration response profile was determined at a GABA concentration giving rise to 5-20% of the maximal GABA-evoked response from α1β2γ2, α2β2γ2, α3β2γ2 and α5β2γ2 receptors expressed in Xenopus laevis oocytes.
(§3) Collagenase defolliculated X. laevis oocytes were obtained from Ecocyte Bioscience. For injection, the oocytes were placed in a custom designed chamber in Mod. […]
(§4) Electrophysiological responses from X. laevis oocytes were measured using the two-electrode voltage clamp technique. […] Currents were amplified by a Geneclamp 500B amplifier (Axon), low-pass filtered at 20 Hz, digitized at 200 Hz by a Digidata 1322A (Axon) and then recorded as well as analyzed by a PC (Compaq Evo) using the pClamp9 suite (Axon). […]

Series [3] deals with T3, α1β2γ2 GABAA receptors expressed in Xenopus laevis oocytes (Homo sapiens, UniProt P14867+P18507).
T3 construct: expressed in transfected cells; host or cells: Xenopus laevis oocytes injected with cRNA
Put plainly: Oocyte two-electrode voltage clamp electrophysiology, α1β2γ2. As to conditions: GABA at EC10-20, normalized to diazepam. Format: cell-based. How it is done: as §1, §2
Collagenase defolliculated X. laevis oocytes were obtained from Ecocyte Bioscience. For injection, the oocytes were placed in a custom designed chamber in Mod. Barth's solution (90 mM NaCl, 1 mM KCl, 0.66 mM NaNO3, 2.4 mM NaHCO3, 0.74 mM CaCl2, 0.82 mM MgCl2, 100 μg/ml Gentamicin and 10 mM HEPES adjusted to pH 7.55) and injected with 25-50 nl of cRNA mixture using a Pico Pump (WPI). The cRNA mixture contain GABAAR subunits αx, β2, and γ2s in the ratio of 3:1:3 and in a total concentration of 0.5 μg/μl. Following injection, oocytes were maintained at 18° C. in Mod.
Electrophysiological responses from X. laevis oocytes were measured using the two-electrode voltage clamp technique. Single oocytes were placed in custom designed recording chambers that were continuously perfused with ≥2 ml/min OR2 (90 mM NaCl, 2.5 mM KCl, 2.5 mM CaCl2, 1 mM MgCl2 and 5 mM HEPES pH 7.4). […] The oocyte was impaled using manual micro manipulators and allowed to equilibrate at a holding potential of −50 mV to −80 mV for at least 1 min to ensure a maximal leak current of 100 nA before the experiment was initiated. […] Currents were amplified by a Geneclamp 500B amplifier (Axon), low-pass filtered at 20 Hz, digitized at 200 Hz by a Digidata 1322A (Axon) and then recorded as well as analyzed by a PC (Compaq Evo) using the pClamp9 suite (Axon). […]

The test system of series [4] is male Sprague Dawley (SD) rats. The series is described as follows: Exploratory locomotor activity in male SD rats. Format: in vivo, rat. The note with it: up to 30 mg/kg per oral, 120 minutes prior, recorded 30 minutes. On the procedure: FIG. 4. […] The activity of the rats was automatically registered for 30 minutes (TSE MoTil, Germany).
Male SD rats (180-250 grams, NTac:SD, Taconic, Denmark)
2 hrs post dosing, the rats were placed individually into novel standard home cages with reduced sawdust bedding. The cages were placed in frames equipped with photocells and beams allowing for automatic recording of locomotor behaviour (TSE MoTil, Germany). The exploratory locomotor activity was recorded for 30 minutes.

Series [5] addresses T4, α2β2γ2 GABAA receptors expressed in Xenopus laevis oocytes (Homo sapiens, UniProt P18507+P47869).
T4 construct: expressed in transfected cells; host or cells: Xenopus laevis oocytes injected with cRNA
The series is described as follows: Oocyte two-electrode voltage clamp electrophysiology, α2β2γ2. Format: cell-based. The note with it: GABA at EC10-20; normalized to maximal effective concentration of diazepam. How it is done: as §1, §2, §3, §4

The subject of series [6] is Chronic Constriction Injury (CCI) in Rats. Put plainly: Mechanical allodynia in chronic constriction injury (CCI) rats, acute and chronic dosing. The note with it: for paw withdrawal threshold vs vehicle after chronic dosing: tested day 8.
Protocol: Morphine was administered subcutaneously. […] The animals were tested after 14 days of surgery. **p<0.01,****p<0.0001 vs vehicle, Two-way ANOVA Fisher's LSD posttest, n=7−9.
Male SPRD rats (Taconic), 140-160 grams at surgery
The sciatic nerve was exposed at the mid-thigh level proximal to the sciatic trifurcation. Four chromic gut ligatures (4/0) (Ethicon, New Brunswick, N.J.) were tied loosely around the nerve, 1-2 mm apart, such that the vascular supply was not overtly compromised. The overlying muscle was closed in layers with 4/0 synthetic absorbable surgical suture.
Morphine-hydrochloride: 6 mg/kg free base weight, 1 ml/kg, subcutaneous administration. Pretreatment: 30 minutes
Morphine hydrochloride: 6 mg/kg free base weight, 1 ml/kg, subcutaneous administration once daily for 7 days.
The target in series [7] is T5, α5β2γ2 GABAA receptors expressed in Xenopus laevis oocytes (Homo sapiens, UniProt P18507+P31644).
T5 construct: expressed in transfected cells; host or cells: Xenopus laevis oocytes injected with cRNA
The series is described as follows: Oocyte two-electrode voltage clamp electrophysiology, α5β2γ2. As to conditions: GABA at EC10-20; normalized to maximal effective concentration of diazepam. Format: cell-based. How it is done:
as §1, §2, §3, §4

Series [8] has as its system Compound 48/80 induced scratching in male CD-1 mice. The series is described as follows: Compound 48/80 induced scratching in male CD-1 mice.
Protocol: Male CD-1 mice (22-30 g) (InterVivo Solutions, Canada)
All treatments were dosed at a dosing volume of 10 ml/kg.
Visual observation of bouts of scratching over 30 minutes. Visual assessments were performed blinded to treatment.
For series [9], the system named is male Sprague Dawley (SD) rats. The series is described as follows: Rotarod performance in male SD rats. The note with it: 10 mg/kg per oral, 60 minutes before test.
Protocol: Rats were trained on the rota rod for two days at 4-40 rpm for 5 min before evaluating the drug effects on the 3rd day.
Male SD rats (150-180 grams, NTac:SD, Taconic, Denmark)
The rats were trained on an accelerating rotarod (4-40 rpm, PanLab), one trial of 5 minutes per day, for two days prior to drug testing. Only rats that were able to stay on the rotating rod for more than 90 seconds after two days of training were included in the study. At the day of testing, the rats were placed on the rotating rod, accelerating with a speed of 4-40 rpm/5 minutes with the minimum time possible to spend on the rod designated as 0 s, and the maximum time spent on the rod set at 300 s.

“Also recorded” adds a separate entry of the source.

T3 sequence (P14867 28-456): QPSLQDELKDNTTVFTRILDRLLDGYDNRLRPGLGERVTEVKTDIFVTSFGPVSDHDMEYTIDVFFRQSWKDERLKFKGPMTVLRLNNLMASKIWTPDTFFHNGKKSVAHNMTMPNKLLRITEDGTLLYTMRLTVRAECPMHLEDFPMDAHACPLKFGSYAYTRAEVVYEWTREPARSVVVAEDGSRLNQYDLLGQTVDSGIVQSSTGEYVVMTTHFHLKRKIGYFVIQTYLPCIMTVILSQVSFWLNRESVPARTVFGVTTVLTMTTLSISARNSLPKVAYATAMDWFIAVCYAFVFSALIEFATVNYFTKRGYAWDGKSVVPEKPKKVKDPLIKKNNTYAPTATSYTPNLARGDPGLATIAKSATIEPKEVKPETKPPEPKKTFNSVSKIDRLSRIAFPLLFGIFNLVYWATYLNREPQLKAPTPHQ
T3 sequence (P47870 25-512 partner limits assumed): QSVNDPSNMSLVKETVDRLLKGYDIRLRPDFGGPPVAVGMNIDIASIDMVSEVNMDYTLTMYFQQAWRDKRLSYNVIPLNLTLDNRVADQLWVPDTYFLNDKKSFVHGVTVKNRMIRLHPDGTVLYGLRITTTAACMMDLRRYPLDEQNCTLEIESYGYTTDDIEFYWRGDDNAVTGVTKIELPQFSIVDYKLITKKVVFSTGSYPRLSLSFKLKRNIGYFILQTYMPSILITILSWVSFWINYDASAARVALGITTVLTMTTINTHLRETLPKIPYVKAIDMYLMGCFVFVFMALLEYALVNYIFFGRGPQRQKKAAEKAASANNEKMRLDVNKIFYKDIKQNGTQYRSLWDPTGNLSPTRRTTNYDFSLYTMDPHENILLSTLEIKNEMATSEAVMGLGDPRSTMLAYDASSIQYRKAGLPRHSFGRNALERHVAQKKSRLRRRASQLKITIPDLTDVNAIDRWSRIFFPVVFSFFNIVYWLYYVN
T3 sequence (P18507 40-467 isoform P18507-1 limits assumed): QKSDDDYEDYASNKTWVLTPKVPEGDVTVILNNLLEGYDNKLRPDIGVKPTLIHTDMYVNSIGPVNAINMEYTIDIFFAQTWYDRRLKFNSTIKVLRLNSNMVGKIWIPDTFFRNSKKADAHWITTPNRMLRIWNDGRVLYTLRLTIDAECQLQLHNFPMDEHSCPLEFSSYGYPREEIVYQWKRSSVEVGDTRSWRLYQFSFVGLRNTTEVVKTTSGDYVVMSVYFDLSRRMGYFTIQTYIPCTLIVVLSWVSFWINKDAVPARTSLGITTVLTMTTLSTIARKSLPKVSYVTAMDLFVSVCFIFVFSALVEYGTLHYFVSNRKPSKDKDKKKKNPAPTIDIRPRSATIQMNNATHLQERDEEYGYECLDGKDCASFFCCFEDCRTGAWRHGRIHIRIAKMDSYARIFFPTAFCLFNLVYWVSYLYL
T1 sequence (P34903 29-492): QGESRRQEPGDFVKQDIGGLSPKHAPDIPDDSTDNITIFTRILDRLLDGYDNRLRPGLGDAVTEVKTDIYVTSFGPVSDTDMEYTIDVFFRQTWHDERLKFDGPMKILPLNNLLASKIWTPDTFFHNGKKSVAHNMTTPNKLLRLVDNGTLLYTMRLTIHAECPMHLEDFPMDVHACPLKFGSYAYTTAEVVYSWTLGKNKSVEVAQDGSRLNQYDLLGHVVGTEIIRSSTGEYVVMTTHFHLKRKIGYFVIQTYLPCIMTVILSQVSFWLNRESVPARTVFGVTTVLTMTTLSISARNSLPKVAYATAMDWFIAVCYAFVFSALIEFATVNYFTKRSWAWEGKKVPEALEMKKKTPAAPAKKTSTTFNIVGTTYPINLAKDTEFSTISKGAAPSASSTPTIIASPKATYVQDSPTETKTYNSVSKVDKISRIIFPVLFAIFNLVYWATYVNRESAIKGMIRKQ
T1 sequence (P47870 25-512 partner limits assumed): as the sequence (P47870 25-512 partner limits assumed) above
T1 sequence (P18507 40-475): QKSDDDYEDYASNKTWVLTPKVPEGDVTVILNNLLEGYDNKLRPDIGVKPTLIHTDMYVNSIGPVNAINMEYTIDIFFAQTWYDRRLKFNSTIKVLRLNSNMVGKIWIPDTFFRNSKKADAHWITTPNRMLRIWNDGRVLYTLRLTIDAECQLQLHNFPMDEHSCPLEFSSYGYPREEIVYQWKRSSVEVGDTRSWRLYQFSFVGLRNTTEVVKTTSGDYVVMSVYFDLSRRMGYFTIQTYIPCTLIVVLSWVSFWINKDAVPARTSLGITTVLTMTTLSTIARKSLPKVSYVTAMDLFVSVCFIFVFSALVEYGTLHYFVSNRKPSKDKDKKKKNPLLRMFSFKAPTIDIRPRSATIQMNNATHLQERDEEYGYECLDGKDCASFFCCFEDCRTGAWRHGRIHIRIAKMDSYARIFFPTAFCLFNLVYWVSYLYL
T5 sequence (P31644 32-462): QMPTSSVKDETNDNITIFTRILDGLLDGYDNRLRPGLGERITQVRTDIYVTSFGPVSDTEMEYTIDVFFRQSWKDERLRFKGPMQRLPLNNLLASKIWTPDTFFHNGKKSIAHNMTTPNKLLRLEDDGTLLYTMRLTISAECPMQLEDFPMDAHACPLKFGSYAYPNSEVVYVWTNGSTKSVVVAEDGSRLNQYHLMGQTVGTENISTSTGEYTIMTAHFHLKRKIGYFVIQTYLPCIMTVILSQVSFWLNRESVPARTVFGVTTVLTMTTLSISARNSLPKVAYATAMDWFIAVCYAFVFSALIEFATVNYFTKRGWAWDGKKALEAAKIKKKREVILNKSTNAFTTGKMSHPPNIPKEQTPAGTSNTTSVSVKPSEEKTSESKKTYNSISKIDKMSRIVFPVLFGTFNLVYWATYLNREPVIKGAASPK
T5 sequence (P47870 25-512 partner limits assumed): as the sequence (P47870 25-512 partner limits assumed) above
T5 sequence (P18507 40-467 isoform P18507-1 limits assumed): as the sequence (P18507 40-467 isoform P18507-1 limits assumed) above
T4 sequence (P47869 29-451): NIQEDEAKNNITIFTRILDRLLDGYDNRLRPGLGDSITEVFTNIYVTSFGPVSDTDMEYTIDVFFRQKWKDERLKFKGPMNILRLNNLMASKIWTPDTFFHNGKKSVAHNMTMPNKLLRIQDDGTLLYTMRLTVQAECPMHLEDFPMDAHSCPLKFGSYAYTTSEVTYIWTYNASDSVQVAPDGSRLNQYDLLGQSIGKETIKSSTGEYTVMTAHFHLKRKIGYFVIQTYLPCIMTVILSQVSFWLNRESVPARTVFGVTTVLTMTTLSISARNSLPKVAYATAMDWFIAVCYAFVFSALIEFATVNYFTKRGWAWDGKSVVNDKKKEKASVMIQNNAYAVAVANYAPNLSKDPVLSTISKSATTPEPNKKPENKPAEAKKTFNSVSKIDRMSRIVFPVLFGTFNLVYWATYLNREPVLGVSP
T4 sequence (P47870 25-512 partner limits assumed): as the sequence (P47870 25-512 partner limits assumed) above
T4 sequence (P18507 40-467 isoform P18507-1 limits assumed): as the sequence (P18507 40-467 isoform P18507-1 limits assumed) above
T2 sequence (P34903 29-492): as the sequence (P34903 29-492) above
T2 sequence (P47870 25-512 partner limits assumed): as the sequence (P47870 25-512 partner limits assumed) above
T2 sequence (P18507 40-467 isoform P18507-1 limits assumed): as the sequence (P18507 40-467 isoform P18507-1 limits assumed) above

In the case of `COc1ncc(-c2cccc(-n3cnc4cc(C(C)(C)O)cnc43)c2)c(OC)n1` [Compound 1, 2-(3-(3-(2,4-dimethoxypyrimidin-5-yl)phenyl)-3H-imidazo[4,5-b]pyridin-6-yl)propan-2-ol], the IC50 in series [1] stood at 38 nM. For the same molecule, in series [1], the Ki came out at 15 nM. Moreover, the “potentiation of GABA-mediated currents in GABAA-α3 containing receptors” value in series [2] was “preferential potentiation”. Also, the “modulation of GABA-mediated currents, α1β2γ2 receptor” value in [3] was “no activation”; in [3] (listed as compound 1), “close to zero”. The exploratory locomotor activity entry in series [4] is given as “did not exert any effect; also recorded: did not affect exploratory locomotor activity”. In series [5], the “activation of GABAA-α2 containing receptors” value is listed as “less than 10%”. In addition, the “paw withdrawal threshold vs vehicle after chronic dosing” value in [6] (1, 3, 10 mg/kg per oral once daily for 7 days) was “significant enhancement of the paw withdrawal threshold was maintained”; in [6] (1, 3, 10 mg/kg per oral once daily for 7 days, listed as compound 1) it was “significant analgesic effect of all 3 doses were maintained”. Besides, the “paw withdrawal threshold vs vehicle” value is given as “significantly enhanced paw withdrawal threshold” in series [6] (acute, 1 mg/kg per oral, 2 hrs and 3 hrs post treatment); “significantly enhanced paw withdrawal threshold” in [6] (acute, 3 mg/kg per oral, 2 hrs and 3 hrs post treatment); “just failed to reach statistical significance” in series [6] (acute, 10 mg/kg per oral). Further, in series [6] (acute, oral administration, CCI rats), the “minimal effective dose, reversal of mechanical allodynia” value is reported as “less than or equal to 1 mg/kg”. The “activation of GABAA-α5 containing receptors” value in [7] is given as “less than 10%”. Further, the “bouts of scratching over 30 minutes vs vehicle” value in series [8] (3, 10, 30 mg/kg oral gavage, 30 min prior, significant at 10 and 30 mg/kg) is “significantly relieved itching; also recorded: dose dependently reduced”. The “minimal effective dose, bouts of scratching” value in series [8] (oral gavage 30 min before compound 48/80) is given as 10 mg/kg. The CI (IV 0.5 mg/kg, rat) came out at 6.33 mL/min/kg. Further, the “concentration after 8 h” value (dose 1 mg/kg (Table 3)) is “*AUC calculated 0-8 h, concentration after 8 h was 149 ng/ml”.

With `CN1C(=O)CN=C(c2ccccc2)c2cc(Cl)ccc21` [Diazepam], the “latency to fall off accelerating rotarod” value in [9] is reported as “significantly shortened the time to fall off the rod; also recorded: significantly shortened the latency to fall off”.

Consider `CN1CC[C@]23c4c5ccc(O)c4O[C@H]2[C@@H](O)C=C[C@H]3[C@H]1C5.Cl` [Morphine hydrochloride, reference compound], for which, in series [6] (6 mg/kg subcutaneous once daily for 7 days, hydrochloride), the “paw withdrawal threshold vs vehicle after chronic dosing” value is on record as “completely abolished the allodynic effect; also recorded: completely lost”. In addition, in [6] (acute, 6 mg/kg subcutaneous), the “paw withdrawal threshold vs vehicle” value is recorded as “significantly enhanced paw withdrawal threshold”.

As to `COc1ncc(-c2cccc(-n3cnc4cc(C(C)(C)O)ccc43)c2)c(OC)n1` [Compound 9, reference compound], the “modulation of GABA-mediated currents, α1β2γ2 receptor” value in [3] is listed as “clearly negative”.

Values taken from patent US11396510B2, “GABAA receptor ligand” (Saniona A/S, priority 2018, dated 2022).
